Reference: ChEMBL document CHEMBL1141488, “Modifying the glycosidic linkage in digitoxin analogs provides selective cytotoxins” (Bioorg Med Chem Lett, 2008)

Columns and labels:
HT-29 = test: Cytotoxicity against human HT29 cells; assay type: functional, cell-based
NCI/ADR-RES = test: Cytotoxicity against human NCI/ADR-RES cells; assay type: functional, cell-based

Row | SMILES | IC50 (HT-29) [µM] | IC50 (NCI/ADR-RES) [µM]
1 | C[C@]12CC[C@H](N(OCc3ccccc3)OC3OC[C@H](O)[C@@H](O)[C@@H]3O)C[C@H]1CC[C@@H]1[C@@H]2CC[C@]2(C)[C@@H](C3=CC(=O)OC3)CC[C@]12O (stereo partly drawn) | > 1 | –
2 | CC(C)ON(OC1OC[C@H](O)[C@@H](O)[C@@H]1O)[C@H]1CC[C@@]2(C)[C@H](CC[C@@H]3[C@@H]2CC[C@]2(C)[C@@H](C4=CC(=O)OC4)CC[C@]32O)C1 (stereo partly drawn) | – | 0.12
3 | CC(C)ON(OC1OC[C@H](O)[C@H](O)[C@@H]1O)[C@H]1CC[C@@]2(C)[C@H](CC[C@@H]3[C@@H]2CC[C@]2(C)[C@@H](C4=CC(=O)OC4)CC[C@]32O)C1 (stereo partly drawn) | – | 0.11
